Data from PMC11604048, “Constrained TACC3 peptidomimetics for a non-canonical protein–protein interface elucidate allosteric communication in Aurora-A kinase” (Chemical Science, 2024).
Where two headings read alike, the source gives them in different places. Each block holds one molecule with its values, some of them ahead of it. *1 amine or outer side, *2 acyl side, *3 side chain or, on linkers, in order; H or OH if unused. Where a SMILES comes first, the peptide text is derived from it. Bridges are numbered along the chain shown (N, C = ends). Biphenyl(4,4'-CH2)2 = c1cc(-c2ccc(C[*:2])cc2)ccc1C[*:1]; Maleimide(3,4-diyl) = O=C1NC(=O)C([*:2])=C1[*:1]

Molecular target: T1, Aurora-A122-403-C290A/C393A (Homo sapiens, UniProt O14965, C290A/C393A)
T1 construct: Human Aurora-A kinase domain 122-403 wild-type or C290A/ C393A mutant; His tag (pET30TEV vector) (N, cleaved yes); made in house; host or cells: E. coli RIL, co-expressed with lambda phosphatase (Aurora-A); tracer by solid phase synthesis
T1 sequence (O14965 122-403 C290A/C393A): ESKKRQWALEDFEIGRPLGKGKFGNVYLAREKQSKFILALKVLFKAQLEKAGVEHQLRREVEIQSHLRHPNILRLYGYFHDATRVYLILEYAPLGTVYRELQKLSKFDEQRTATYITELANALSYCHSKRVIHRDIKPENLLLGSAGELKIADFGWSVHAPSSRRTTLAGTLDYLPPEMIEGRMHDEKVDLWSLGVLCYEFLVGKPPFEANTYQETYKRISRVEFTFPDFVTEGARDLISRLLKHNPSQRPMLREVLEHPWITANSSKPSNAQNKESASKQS
Assay: Competition FA assay against FAM-Ahx-TACC3 522-536 tracer
Assay type: binding
Protocol: Once completed, the mixtures were transferred into SPPS fritted reaction vessels and washed with H2O (5X, 10 mL, 2 min), DMF (5X, 5mL, 2 min) and DCM (5X, 5 mL, 2 min). The clean resins were dried under vacuum and the cyclic peptides cleaved from the resin following the general procedures described in previous sections. After Et2O precipitation, the crude materials were freeze-dried and redissolved in H2O/MeCN/TFA 90/10/0.1% v/v for preparative HPLC purification.
All disulfide peptide variants (ox) were produced in situ from their free-thiol solid precursors. For this, 2 mg of the pure peptide materials were dissolved in aqueous DMSO 33% v/v to a 10 mM concentration and were left open to air oxidation at room temperature overnight. […]
the peptides were employed for FA competition assays and IC50 evaluation without further additional […]
Fluorescence anisotropy (FA) assays – General information.
All assays were performed using 384-well plates(Greiner Bio-one, UK). […]
produced as described previously.11 All samples were prepared in 25 mM Tris,150 mM NaCl, 5 mM MgCl2, pH= 7.5, unless otherwise stated, and tested in triplicate using an EnVisionTM 2103 MultiLabel plate reader (PerkinElmer; Waltham, MA, USA).The parameters were set as follows: Excitation wavelength = 480 nm (30 nm bandwidth) and emission wavelength = 535 nm (30 nm bandwidth). Measured data were processed and analysed as previously described.12 Specifically, the perpendicular intensity (P) and parallel intensity (S) were subtracted by the control values and used for calculations of intensity and anisotropy using the following Equations 1, 2, 3, 4, and 5:
I= (2PG) + S Eq. (SI − 5)
r = (S − PG) Eq. (SI − 6)
L = r − r௠௜௡ Eq. (SI − 7)
y = (k + x + [FL]) − ඥ(k + x + [FL]2 − 4 ∗ x ∗ [FL]) Eq. (SI − 8)
y = r + r௠௜௡ − r௠௔௫ Eq. (SI − 9)
Where I = total intensity; P = perpendicular intensity; S = parallel intensity; G = instrument factor; r = anisotropy; Lb = ligand bound fraction; λ = change in intensity between bound and unbound states which […]
FA direct binding assays. […]
starting from 700 μM, diluted over 24 points in a 1/2 regime using the FAM-Ahx-labeled peptides at a final fixed concentration of 50 nM per well.
FA competition assays were performed using the same plates and buffer as described above, with the initial […]
14 points in a 1/2 regime. […]
after 4 h of incubation to enable appropriate sample equilibration. To prevent sample oxidation, when sulfhydryl peptides were analyzed DTT was added to the buffer (5 mM). In competition mode, the average anisotropy and the average standard deviation of the values derived from equation SI-6 were calculated and fit to a sigmoidal logistic model (equation SI-9) using Origin 2021. When using peptides for which full […]
For consistency, all the data […]
indicating the corresponding SD. […]

[1] = as E1, free-sulfhydryl (reduced) species, DTT 5 mM in buffer, WT control (+DTT), mean ± SD, n = 3, SD, read-out: IC50 (red)
[2] = as E1, oxidised (disulfide) species made in situ from 10 mM stock in aqueous DMSO 33% v/v, air, overnight, WT control (+DMSO) given the same DMSO incubation, mean ± SD, n = 3, read-out: IC50 (ox)

IC50 [1]: 80 ± 3 µM
Compound: CC(=O)N[C@@H](CCC(=O)O)C(=O)N[C@@H](CCC(=O)O)C(=O)N[C@@H](CO)C(=O)N[C@@H](Cc1ccccc1)C(=O)N[C@@H](CCCNC(=N)N)C(=O)N[C@@H](CC(=O)O)C(=O)N1CCC[C@H]1C(=O)N[C@@H](C)C(=O)N[C@@H](CCC(=O)O)C(=O)N[C@H](C(=O)N[C@@H](CC(C)C)C(=O)N[C@@H](CS)C(=O)N[C@H](C(=O)NCC(=O)N[C@@H](CS)C(N)=O)[C@@H](C)O)C(C)C [TACC3 522-536 G533C/A536C (red)] (Ac-EESFRDPAEVLCTGC-NH2)

IC50 [2]: ≥ 500 µM
Compound: CC(=O)N[C@@H](CCC(=O)O)C(=O)N[C@@H](CCC(=O)O)C(=O)N[C@H]1CSSC[C@@H](C(=O)N2CCC[C@H]2C(=O)N[C@@H](C)C(=O)N[C@@H](CCC(=O)O)C(=O)N[C@H](C(=O)N[C@@H](CC(C)C)C(=O)NCC(=O)N[C@H](C(=O)NCC(=O)N[C@@H](C)C(N)=O)[C@@H](C)O)C(C)C)NC(=O)[C@H](CCCNC(=N)N)NC(=O)[C@H](Cc2ccccc2)NC1=O [TACC3 522-536 S524C/D527C (ox)] (Ac-EECFRCPAEVLGTGA-NH2; disulfide 3-6)

IC50 [2]: ≥ 500 µM
Compound: CC(=O)N[C@@H](CCC(=O)O)C(=O)N[C@H]1CSSC[C@@H](C(=O)N[C@@H](CC(=O)O)C(=O)N2CCC[C@H]2C(=O)N[C@@H](C)C(=O)N[C@@H](CCC(=O)O)C(=O)N[C@H](C(=O)N[C@@H](CC(C)C)C(=O)NCC(=O)N[C@H](C(=O)NCC(=O)N[C@@H](C)C(N)=O)[C@@H](C)O)C(C)C)NC(=O)[C@H](Cc2ccccc2)NC(=O)[C@H](CO)NC1=O [TACC3 522-536 E523C/R526C (ox)] (Ac-ECSFCDPAEVLGTGA-NH2; disulfide 2-5)

IC50 (as E1, Table S3 (mal): maleimide-constrained species, WT value is an individual replica control assay, mean ± SD, n = 3, SD, read-out: IC50 (mal)): 244 ± 28 µM
Compound: CC(=O)N[C@@H](CCC(=O)O)C(=O)N[C@@H](CCC(=O)O)C(=O)N[C@@H](CO)C(=O)N[C@H]1CSC2=C(SC[C@@H](C(=O)N[C@@H](C)C(=O)N[C@@H](CCC(=O)O)C(=O)N[C@H](C(=O)N[C@@H](CC(C)C)C(=O)NCC(=O)N[C@H](C(=O)NCC(=O)N[C@@H](C)C(N)=O)[C@@H](C)O)C(C)C)NC(=O)[C@H](CC(=O)O)NC(=O)[C@H](CCCNC(=N)N)NC1=O)C(=O)NC2=O [TACC3 522-536 F525C/P528C (mal)] (Ac-EESCRDCAEVLGTGA-NH2; linker 4-7 via Maleimide(3,4-diyl))

IC50 (SD, read-out: IC50): 34 ± 3 µM
Compound: CC(=O)N[C@@H](CCC(=O)O)C(=O)N[C@@H](CCC(=O)O)C(=O)N[C@@H](CO)C(=O)N[C@@H](Cc1ccc(I)cc1)C(=O)N[C@@H](CCCNC(=N)N)C(=O)N[C@@H](CC(=O)O)C(=O)N1CCC[C@H]1C(=O)N[C@@H](C)C(=O)N[C@@H](CCC(=O)O)C(=O)N[C@H](C(=O)N[C@@H](CC(C)C)C(=O)NCC(=O)N[C@H](C(=O)NCC(=O)N[C@@H](C)C(N)=O)[C@@H](C)O)C(C)C [TACC3 522-536_(4-I)525F]

IC50 (as E1, free-sulfhydryl (reduced) species, DTT 5 mM in buffer, WT control (+DTT), mean ± SD, n = 3, read-out: IC50 (red)): ≥ 500 µM
Compound: CC(=O)N[C@@H](CCC(=O)O)C(=O)N[C@@H](CCC(=O)O)C(=O)N[C@@H](CO)C(=O)N[C@@H](Cc1ccccc1)C(=O)N[C@@H](CCCNC(=N)N)C(=O)N[C@@H](CC(=O)O)C(=O)N1CCC[C@H]1C(=O)N[C@@H](CS)C(=O)N[C@@H](CCC(=O)O)C(=O)N[C@H](C(=O)N[C@@H](CS)C(=O)NCC(=O)N[C@H](C(=O)NCC(=O)N[C@@H](C)C(N)=O)[C@@H](C)O)C(C)C [TACC3 522-536 A529C/L532C (red)] (Ac-EESFRDPCEVCGTGA-NH2)

Compound: CC(=O)N[C@@H](CC(C)C)C(=O)N[C@@H](CCC(=O)O)C(=O)N[C@@H](CC(C)C)C(=O)N[C@@H](CCCCN)C(=O)N[C@@H](CCC(=O)O)C(=O)N[C@@H](CCC(=O)O)C(=O)N[C@H]1CSCc2ccc(cc2)-c2ccc(cc2)CSC[C@@H](C(=O)N[C@H](C(=O)N[C@@H](CC(C)C)C(N)=O)C(C)C)NC(=O)[C@H](C)NC(=O)[C@@H]2CCCN2C(=O)[C@H](CC(=O)O)NC(=O)[C@H](CCCNC(=N)N)NC(=O)[C@H](Cc2ccccc2)NC1=O [TACC3 518-532 S524C/E530C (Bph)] (Ac-LELKEECFRDPACVL-NH2; linker 7-13 via Biphenyl(4,4'-CH2)2)
fold enhanced inhibitory potency (IC50) compared to the WT peptide (competition FA IC50 ratio vs WT): up to 4 fold

IC50 (read-out: IC50): ≥ 300 µM
Compound: COc1ccc(C[C@H](NC(=O)[C@H](CO)NC(=O)[C@H](CCC(=O)O)NC(=O)[C@H](CCC(=O)O)NC(C)=O)C(=O)N[C@@H](CCCNC(=N)N)C(=O)N[C@@H](CC(=O)O)C(=O)N2CCC[C@H]2C(=O)N[C@@H](C)C(=O)N[C@@H](CCC(=O)O)C(=O)N[C@H](C(=O)N[C@@H](CC(C)C)C(=O)NCC(=O)N[C@H](C(=O)NCC(=O)N[C@@H](C)C(N)=O)[C@@H](C)O)C(C)C)cc1 [TACC3 522-536_F525Y(OMe)] (Ac-EESY(Me)RDPAEVLGTGA-NH2)

IC50 [2]: ≥ 500 µM
Compound: CC(=O)N[C@@H](CCC(=O)O)C(=O)N[C@@H](CCC(=O)O)C(=O)N[C@@H](CO)C(=O)N[C@@H](Cc1ccccc1)C(=O)N[C@H]1CSSC[C@@H](C(=O)N[C@@H](CC(C)C)C(=O)NCC(=O)N[C@H](C(=O)NCC(=O)N[C@@H](C)C(N)=O)[C@@H](C)O)NC(=O)[C@H](CCC(=O)O)NC(=O)[C@H](C)NC(=O)[C@@H]2CCCN2C(=O)[C@H](CC(=O)O)NC1=O [TACC3 522-536 R526C/V531C (ox)] (Ac-EESFCDPAECLGTGA-NH2; disulfide 5-10)

IC50 (SD, read-out: IC50): 46 ± 8 µM
Compound: CC(=O)N[C@@H](CCC(=O)O)C(=O)N[C@@H](CCC(=O)O)C(=O)N[C@@H](CO)C(=O)N[C@@H](Cc1ccc(Cl)cc1)C(=O)N[C@@H](CCCNC(=N)N)C(=O)N[C@@H](CC(=O)O)C(=O)N1CCC[C@H]1C(=O)N[C@@H](C)C(=O)N[C@@H](CCC(=O)O)C(=O)N[C@H](C(=O)N[C@@H](CC(C)C)C(=O)NCC(=O)N[C@H](C(=O)NCC(=O)N[C@@H](C)C(N)=O)[C@@H](C)O)C(C)C [TACC3 522-536_(4-Cl)525F]

IC50 [1]: 309 ± 38 µM
Compound: CC(=O)N[C@@H](CCC(=O)O)C(=O)N[C@@H](CCC(=O)O)C(=O)N[C@@H](CS)C(=O)N[C@@H](Cc1ccccc1)C(=O)N[C@@H](CCCNC(=N)N)C(=O)N[C@@H](CS)C(=O)N1CCC[C@H]1C(=O)N[C@@H](C)C(=O)N[C@@H](CCC(=O)O)C(=O)N[C@H](C(=O)N[C@@H](CC(C)C)C(=O)NCC(=O)N[C@H](C(=O)NCC(=O)N[C@@H](C)C(N)=O)[C@@H](C)O)C(C)C [TACC3 522-536 S524C/D527C (red)] (Ac-EECFRCPAEVLGTGA-NH2)

IC50 (as E1, Table S3 column (Bph): biphenyl-constrained species, WT value is an individual replica control assay, mean ± SD, n = 3, SD, read-out: IC50 (Bph)): 249 ± 43 µM
Compound: CC(=O)N[C@@H](CCC(=O)O)C(=O)N[C@@H](CCC(=O)O)C(=O)N[C@@H](CO)C(=O)N[C@@H](Cc1ccccc1)C(=O)N[C@H]1CSCc2ccc(cc2)-c2ccc(cc2)CSC[C@@H](C(=O)N[C@@H](CC(C)C)C(=O)NCC(=O)N[C@H](C(=O)NCC(=O)N[C@@H](C)C(N)=O)[C@@H](C)O)NC(=O)[C@H](CCC(=O)O)NC(=O)[C@H](C)NC(=O)[C@@H]2CCCN2C(=O)[C@H](CC(=O)O)NC1=O [TACC3 522-536 R526C/V531C (Bph)] (Ac-EESFCDPAECLGTGA-NH2; linker 5-10 via Biphenyl(4,4'-CH2)2)
